Test results as given in patent publication US10434079B2, “Compositions and methods for the treatment of fatty acid metabolism disorders” (The Children's Hospital of Philadelphia, priority 2013, dated 2019).
“Also recorded” adds a separate entry of the source.

Legend:
wild-type VLCAD = molecular target: T1, wild-type VLCAD (Mus musculus, UniProt P50544); test: Hepa 1 to 6 cells expressing FLAG-tagged wild-type VLCAD exposed to GSNO; assay type: cell-based
T1 construct: 3xFLAG (C); host or cells: Hepa 1 to 6 cells
T1 sequence (P50544 42-656): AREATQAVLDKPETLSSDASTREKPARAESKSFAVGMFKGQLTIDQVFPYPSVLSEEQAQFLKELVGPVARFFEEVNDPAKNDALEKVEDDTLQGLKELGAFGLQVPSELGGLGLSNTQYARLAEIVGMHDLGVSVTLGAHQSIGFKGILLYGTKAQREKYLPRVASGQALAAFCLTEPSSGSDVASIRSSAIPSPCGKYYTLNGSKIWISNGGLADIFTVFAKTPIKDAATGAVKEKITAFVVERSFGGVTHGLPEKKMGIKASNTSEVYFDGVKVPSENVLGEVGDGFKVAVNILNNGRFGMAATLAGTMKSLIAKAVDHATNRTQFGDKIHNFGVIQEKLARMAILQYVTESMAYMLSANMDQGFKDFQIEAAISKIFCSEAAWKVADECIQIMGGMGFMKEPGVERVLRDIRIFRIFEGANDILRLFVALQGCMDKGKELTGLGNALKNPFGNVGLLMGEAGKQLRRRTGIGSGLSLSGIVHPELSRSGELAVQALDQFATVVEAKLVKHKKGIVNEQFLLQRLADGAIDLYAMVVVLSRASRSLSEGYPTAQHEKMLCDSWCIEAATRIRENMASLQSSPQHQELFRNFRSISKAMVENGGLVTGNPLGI
Protocol: Liver homogenate (final concentration of 0.03 μg/μl) or cell lysate (final concentration of 0.09 μg/μl) in 100 mM potassium phosphate buffer (pH 7.2) containing 0.2% Triton X-100 and 0.1 mM EDTA was mixed with […] ferricenium ion, and the reaction was initiated by the addition of palmitoyl-CoA (the final volume of the assay was 130 μl). […] At least nine concentrations of palmitoyl-CoA, ranging from 0.015 to 2 mM, were used for the experimental determination of the apparent Vmax and KM of VLCAD for each animal. […] A unit of enzyme activity is defined as the amount of enzyme that causes the reduction of […] of ferricenium per minute at room temperature (ε=4.3 mM^−1 cm^−1 at 300 nm) (Izai et al. (1992) J. Biol. Chem., 267:1027-1033). […] The measurement of specific activity of VLCAD in liver homogenates (FIG. 2H) and cell lysates (FIG. 4) was performed in the presence of 0.25 and 0.125 mM palmitoyl-CoA, respectively.
Hepa 1 to 6 cells were grown in Dulbecco's modified Eagle's medium (DMEM) containing 10% fetal bovine serum, 2 mM glutamine, penicillin (100 U/ml), and streptomycin ([…]) at 37° C. in air with 5% CO2. Cells were plated at a density of 5×10^4 cells/cm^2 and cultured under normal conditions for 24 hours. Cells were transfected with FLAG®-tagged wild-type VLCAD or FLAG®-tagged C238A VLCAD with Lipofectamine® 2000 reagent (Life Technologies) according to the protocol provided by the manufacturer. Forty-eight hours after transfection, the growth medium was replaced with serum-free DMEM, and […] freshly prepared GSNO was added for 30 minutes, after which the cells were extensively washed with PBS. Cell lysates were obtained immediately or 60, 120, and 240 minutes after the removal of GSNO. The samples were protected from UV light exposure. Lysates were assayed for protein concentration, and equal amounts of protein per sample were used for organic mercury-assisted capture.

ob/ob mice = test: Liver histology and liver/serum triglyceride concentrations in ob/ob mice; assay type: in vivo, mouse; conditions: GSNO-injected vs PBS-injected ob/ob mice
From the text: Formalin-fixed liver sections were stained with Trichrome Stain Kit (Sigma) according to the manufacturer's instructions. Triglycerides were extracted from liver according to the Folch method (Folch et al. (1957) J. Biol. Chem., 226:497-509). Serum and liver triglyceride concentrations were quantified with a triglyceride quantification kit following the manufacturer's instructions (Abcam). Leptin-deficient mice develop liver steatosis spontaneously under normal chow diet starting at 4 to 5 weeks of life that is characterized by a diminished rate of palmitate oxidation and accumulation of fat droplets in the form of triglycerides within the hepatocytes (Brix et al. (2002) Mol. Genet. Metab., 75:219-226; de Oliveira et al. (2008) J. Am. Coll. Nutr., 27:299-305). […] This significant reduction in the rate of palmitoyl-CoA oxidation indicated a deficiency in mitochondrial β-oxidation of fatty acids. […] GSNO was used to deliver nitric oxide equivalents because of the extensive use of this pharmacological agent in cellular models to modify proteins by S-nitrosylation […] cellular permeability (Hara et al. (2005) Nat. Cell Biol., 7:665-674; Chung et al. (2004) Science 304:1328-1331). […] Moreover, the restoration of palmitoyl-CoA oxidation in GSNO-injected ob/ob mice was associated with a significant reduction of the concentration of liver triglycerides. […]

[1] = system: β-oxidation of fatty acids; test: Measurement of β-oxidation: 3H-labeled palmitoyl-CoA oxidation in liver homogenates of treated ob/ob mice; assay type: in vivo, mouse; conditions: GSNO-injected ob/ob mice (i.p.)
Protocol: (1957) J. Biol. Chem., 226:497-509). The aqueous phase was collected, and proteins were precipitated by the addition of 10% TCA followed by centrifugation at 8000 g for 10 minutes at room temperature. Remaining radioactive palmitoyl-CoA was eliminated by strong anion exchange chromatography with AG 1-X8 formate resin (Life Science). The effluent containing the ^3H2O was collected and used for scintillation counting. Each experiment was coupled with a background measurement, a sample containing no protein. The background count number was subtracted from each measurement corresponding to analysis samples. Leptin-deficient mice develop liver steatosis spontaneously under normal chow diet starting at 4 to 5 weeks of life that is characterized by a diminished rate of palmitate oxidation and accumulation of fat droplets in the form of triglycerides within the hepatocytes (Brix et al. (2002) Mol. Genet. Metab., 75:219-226; de Oliveira et al. (2008) J. Am. Coll. Nutr., 27:299-305). […] This significant reduction in the rate of palmitoyl-CoA oxidation indicated a deficiency in mitochondrial β-oxidation of fatty acids. […]

[2] = 60, 120, 240 minutes after removal of GSNO and washing

N[C@@H](CCC(=O)N[C@@H](CSN=O)C(=O)NCC(=O)O)C(=O)O [GSNO, S-nitrosoglutathione]
abundance of S-nitrosylated VLCAD after removal of GSNO (wild-type VLCAD; [2]): declined over time
enzymatic-specific activity after removal of GSNO (wild-type VLCAD; [2]): declined over time
VLCAD-specific activity (wild-type VLCAD; GSNO treatment, 0.125 mM palmitoyl-CoA): significantly higher
fat deposits in liver slices (trichrome histology) (ob/ob mice): diminished fatty acid deposition; also recorded: fewer fat deposits
palmitoyl-CoA oxidation rate compared with PBS-injected ob/ob mice [1]: significantly increased rate
